According to patent US20190048016A1, “SUBSTITUTED BRIDGED UREA ANALOGS AS SIRTUIN MODULATORS” (GlaxoSmithKline Intellectual Property(No.2)Limited, priority 2014, published 2019):

Target: T1, SIRT1 (Homo sapiens, UniProt Q96EB6)
T1 sequence (Q96EB6 1-747): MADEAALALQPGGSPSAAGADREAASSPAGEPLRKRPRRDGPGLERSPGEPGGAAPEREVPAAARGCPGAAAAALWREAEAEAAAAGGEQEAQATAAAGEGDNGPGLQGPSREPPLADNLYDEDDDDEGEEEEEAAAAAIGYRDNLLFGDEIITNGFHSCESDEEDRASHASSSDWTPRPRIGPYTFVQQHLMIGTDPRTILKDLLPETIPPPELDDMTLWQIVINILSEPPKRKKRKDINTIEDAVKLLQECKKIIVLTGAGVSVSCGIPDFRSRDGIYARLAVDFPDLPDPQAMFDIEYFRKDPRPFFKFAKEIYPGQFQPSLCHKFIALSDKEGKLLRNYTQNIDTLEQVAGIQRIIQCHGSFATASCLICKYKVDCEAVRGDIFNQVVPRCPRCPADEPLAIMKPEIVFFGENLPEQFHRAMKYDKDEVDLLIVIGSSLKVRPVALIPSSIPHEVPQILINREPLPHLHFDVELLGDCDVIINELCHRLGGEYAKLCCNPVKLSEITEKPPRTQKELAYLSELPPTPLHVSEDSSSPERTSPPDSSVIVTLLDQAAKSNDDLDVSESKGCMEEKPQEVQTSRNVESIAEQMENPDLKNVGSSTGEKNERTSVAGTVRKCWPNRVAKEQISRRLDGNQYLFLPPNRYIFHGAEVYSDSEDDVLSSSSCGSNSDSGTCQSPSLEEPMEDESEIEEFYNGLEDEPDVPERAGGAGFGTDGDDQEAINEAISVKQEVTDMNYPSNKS
Assay: Trp mass spectrometry assay of SIRT1 activation (deacetylation of Ac-R-H-K-K(Ac)-W-NH2 peptide, OAADPR formation)
Type: biochemical
Details: Trp peptide 0.5 μM, 120 μM βNAD+, 10 nM SIRT1, 25 min, 25° C.
Outline: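 10 nM His-tagged SIRT1 (E. coli expressed) with 0.5 μM Ac-RHKK(Ac)W-NH2 and 120 μM βNAD+, 25 min at 25° C, HEPES pH 7.5, […]; formic acid stop. OAADPR or deacetylated peptide measured by mass spectrometry; EC1.5 = concentration giving 150% activity versus DMSO control; maximum activation also reported.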

Emax (25 min, read-out: TRP MAX RESP (percent maximum fold activation relative to control = 100%)): ≥ 150%
TRP Activity (EC1.5, concentration of compound required to increase SIRT1 activity by 50% over control): A (EC1.5<1 μM)
Compound: O=C(Nc1ncc(OC[C@@H](O)CO)cn1)N1c2nc(-c3cccc(C(F)(F)F)c3)c(Cl)cc2N2CCC[C@H]1C2 [Example 92, (9S)-3-chloro-N-(5-((S)-2,3-dihydroxypropoxy)pyrimidin-2-yl)-2-(3-(trifluoromethyl)phenyl)-8,9-dihydro-6H-5,9-methanopyrido[2,3-b][1,4]diazocine-10(7H)-carboxamide]
